What all share (assay): growth of human tumour cells (NCI), 48 h
The subject of test [1] is A498.
Test [2] has as its system CCRF-CEM.
Test [3] relates to LXFL 529.
Test [4] has as its system MOLT-4.
In test [5] the test system is Malme-3M.
In test [6] the test system is NCI-H23.
The subject of test [7] is OVCAR-3.
Test [8] deals with OVCAR-5.
The test system of test [9] is RPMI-8226.
For test [10], the system named is SF-295.
In test [11] the test system is SF-539.
The subject of test [12] is SK-MEL-28.
Test [13] concerns SK-OV-3.
Test [14] relates to SW-620.
Test [15] deals with UACC-62.
The subject of test [16] is UO-31.
Test [17] has as its system A549.

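The compound was tested at five concentrations on cells cultured in 96-well plates, with a 48-hour exposure period. GI50 = concentration required for 50% inhibition of growth.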 The source made the active and inactive calls. Cut-off read from the data, not from the text of the source: active = GI50 up to about 1.1 µM and inactive = higher. Bounds are passed on as bounds.

Take `COc1cc2c(c(OC)c1OC)-c1ccc(SC)c(=O)cc1[C@@H](NC(=O)c1ccc(F)cc1)CC2`: the GI50 in [1] was 0.0399 µM (active); in test [2], < 0.01 µM (active); in test [3], 0.0356 µM (active); in [4], 0.0601 µM (active); in test [5] it was 0.0615 µM (active); in [6] it was 0.0417 µM (active). The GI50 in test [7] was 0.0183 µM (active); in [8] it was 48.1 µM (inactive); in [9] it was 0.0498 µM (active); in test [10], 0.0327 µM (active); in test [11], 0.0283 µM (active); in [12], 15.2 µM (inactive). The GI50 in test [13] was 0.0294 µM (active); in [14], 0.0306 µM (active); in [15], 0.0454 µM (active); in [16], < 0.01 µM (active).

Consider `CC(C)=CC1CCc2ccccc2N1S(=O)(=O)c1ccc(C)cc1` (centres undefined), for which the GI50 is 1.61 µM (inactive) in test [1]; 1.22 µM (inactive) in [17]; 0.373 µM (active) in test [2]; 2.36 µM (inactive) in test [3]; 1.18 µM (inactive) in test [4]; 1.67 µM (inactive) in test [5]. Moreover, the GI50 in test [6] was 1.4 µM (inactive); in test [7], 0.865 µM (active); in test [8], 14.8 µM (inactive); in [9], 1.32 µM (inactive); in test [10], 1.5 µM (inactive); in test [11], 1.16 µM (inactive). In addition, the GI50 in [12] was 1.96 µM (inactive); in test [13], 1.7 µM (inactive); in [14], 0.726 µM (active); in test [15], 0.982 µM (active); in test [16], 3.61 µM (inactive).

Turning to `N/N=C1/C(=O)N(c2ccc(Cl)cc2)C(=O)C(=O)C1c1nc2ccccc2s1` (centres undefined), the GI50 in test [1] is > 100 µM (inactive); in test [17], > 100 µM (inactive); in test [2], 74.6 µM (inactive); in [3], > 100 µM (inactive); in test [4] it was > 100 µM (inactive); in [5], > 100 µM (inactive). Moreover, the GI50 in test [6], in test [7], in [8], in test [9], in test [10] and in test [11] was > 100 µM (inactive) throughout. Besides, the GI50 in test [12], in [13], in test [14], in test [15] and in test [16] was > 100 µM (inactive) throughout.

On to `Cn1cc(C2(C)CC(C)(C)c3c2n(C)c2ccccc32)c2ccccc21` (centres undefined), for which the GI50 was > 100 µM (inactive) in test [1]; > 100 µM (inactive) in test [17]; 92.7 µM (inactive) in test [2]; > 100 µM (inactive) in [3]; 42.4 µM (inactive) in test [4]; > 100 µM (inactive) in [5]. The GI50 in test [6] was 95.3 µM (inactive); in test [7], 64 µM (inactive); in test [9] it was 40.2 µM (inactive); in test [10], > 100 µM (inactive); in test [11] it was > 100 µM (inactive); in [12] it was > 100 µM (inactive). For the same compound, the GI50 in test [13] is > 100 µM (inactive); in test [14], > 100 µM (inactive); in test [15], > 100 µM (inactive); in [16], 92.7 µM (inactive).

Regarding `CC1NOC(=O)C1/N=N/c1ccccc1Br` (centres undefined), the GI50 in test [1] was 26.8 µM (inactive); in [17], 24.2 µM (inactive); in [2], 25.8 µM (inactive); in test [3], 15.7 µM (inactive); in test [4] it was 29 µM (inactive); in test [5], 26.2 µM (inactive). For the same compound, the GI50 is 22.6 µM (inactive) in test [6]; 20.5 µM (inactive) in test [7]; 40.7 µM (inactive) in test [8]; 28.8 µM (inactive) in [9]; 40.7 µM (inactive) in test [10]; 22.3 µM (inactive) in [11]. Also, the GI50 in test [12] is 31 µM (inactive); in test [13] it was 38.1 µM (inactive); in [14], 13.8 µM (inactive); in [15], 19.9 µM (inactive); in test [16], 18.6 µM (inactive).

As for `CC(=O)NC1C(OCc2ccccc2)OC(COC(=O)CCCCCCCCCCNC(=O)CCNc2ccc([N+](=O)[O-])c3[nH]c4ccc(O)cc4c(=O)c23)C(O)C1OC(C)C(=O)N[C@H](C(=O)N[C@H](CCC(=O)O)C(N)=O)C(C)C` (some centres undefined), the GI50 in [1] is 69.8 µM (inactive); in [17], > 100 µM (inactive); in test [2], 33 µM (inactive); in [3], 81.8 µM (inactive); in test [4] it was 43.2 µM (inactive); in test [5], 22.9 µM (inactive). Besides, the GI50 in test [6] is > 100 µM (inactive); in [7], 84.9 µM (inactive); in [8], 54.3 µM (inactive); in [9] it was 19.2 µM (inactive); in test [10], > 100 µM (inactive); in test [11] it was 40.1 µM (inactive). Moreover, the GI50 in test [12] is > 100 µM (inactive); in test [13], 84.1 µM (inactive); in test [15], 85.3 µM (inactive); in test [16], 55.2 µM (inactive).

As to `C=C1C(=O)OC2C1CC[C@H](C)C1(O)C(O)CC(=O)[C@@]21C` (some centres undefined), the GI50 was 10 µM (inactive) in test [1]; 31 µM (inactive) in [17]; > 10 µM (inactive) in test [2]; > 10 µM (inactive) in [3]; 14.4 µM (inactive) in [4]; 17.3 µM (inactive) in test [5]. Besides, the GI50 is 18.7 µM (inactive) in test [6]; 21.2 µM (inactive) in [7]; 21 µM (inactive) in test [8]; 22.1 µM (inactive) in test [9]; 24.8 µM (inactive) in test [10]; 19 µM (inactive) in [11]. Besides, the GI50 in test [12] is 13.6 µM (inactive); in [13] it was 24.9 µM (inactive); in test [14], 20.6 µM (inactive); in test [15], 12.7 µM (inactive); in [16], 28.6 µM (inactive).

For `CN/N=C(/CC(=O)c1sc(-n2nc(-c3ccccc3)cc2-c2ccccc2)nc1C)C(=O)Nc1ccc(Cl)c(Cl)c1`, the GI50 in [1] is 16.1 µM (inactive); in [17], 37.9 µM (inactive); in [2] it was 27.7 µM (inactive); in test [3], 26.3 µM (inactive); in test [4], 16.7 µM (inactive); in test [5] it was 78.3 µM (inactive). In addition, the GI50 in test [6] was 23.7 µM (inactive); in test [7], 38.7 µM (inactive); in [8], 16.1 µM (inactive); in [9], 40.1 µM (inactive); in test [10], 25.3 µM (inactive); in test [11], 40.2 µM (inactive). Moreover, the GI50 in [12] was 55.1 µM (inactive); in test [13], 24.6 µM (inactive); in [14], 57.5 µM (inactive); in [15], 26.5 µM (inactive); in test [16], 21.2 µM (inactive).

As to `CNC(=O)OCc1nc(SC(C)C)n(C)c1COC(=O)NC`, the GI50 is > 100 µM (inactive) in test [1]; > 100 µM (inactive) in test [17]; 48.5 µM (inactive) in test [2]; > 100 µM (inactive) in [3]; 44.8 µM (inactive) in test [4]; > 100 µM (inactive) in [5]. Besides, the GI50 is > 100 µM (inactive) in test [6]; > 100 µM (inactive) in [7]; > 100 µM (inactive) in test [8]; > 71.1 µM (inactive) in [9]; > 100 µM (inactive) in test [10]; > 100 µM (inactive) in test [11]. Further, the GI50 in test [12], in [13], in [14], in test [15] and in [16] was > 100 µM (inactive) throughout.

Turning to `c1ccc(OCCSCCCCCCCCCCSCCOc2ccccc2)cc1`, the GI50 was 27.5 µM (inactive) in test [1]; 31.6 µM (inactive) in test [17]; > 100 µM (inactive) in test [2]; > 100 µM (inactive) in test [3]; > 100 µM (inactive) in test [4]; 14.7 µM (inactive) in test [5]. Moreover, the GI50 was > 100 µM (inactive) in test [6]; > 100 µM (inactive) in test [7]; > 100 µM (inactive) in test [8]; > 100 µM (inactive) in [9]; 30.7 µM (inactive) in [10]; > 100 µM (inactive) in test [11]. Also, the GI50 in test [12] was > 100 µM (inactive); in test [13], > 100 µM (inactive); in test [14], 54.2 µM (inactive); in [15], > 100 µM (inactive); in test [16] it was 65.3 µM (inactive).

On to `CC(=O)NNc1nc(C)c(C(=O)NNC(=O)C(=O)Nc2ccc(C)c(C)c2)s1`, for which the GI50 is > 100 µM (inactive) in [1]; > 100 µM (inactive) in test [17]; 42.2 µM (inactive) in [2]; 58.2 µM (inactive) in [3]; 39.6 µM (inactive) in test [4]; > 100 µM (inactive) in [5]. Further, the GI50 in test [6] is > 100 µM (inactive); in test [7], 21.3 µM (inactive); in [8], > 100 µM (inactive); in test [9], 50.9 µM (inactive); in [10], 78.5 µM (inactive); in test [11], > 100 µM (inactive). Besides, the GI50 in [12] was > 100 µM (inactive); in test [13], > 100 µM (inactive); in [14] it was > 100 µM (inactive); in [15], > 100 µM (inactive); in test [16], 74 µM (inactive).

On to `Cc1c(C(=O)/C=C/c2ccccc2Cl)[n+]([O-])c2ccccc2[n+]1[O-]`, for which the GI50 is 14 µM (inactive) in [1]; 15.9 µM (inactive) in [17]; 7.08 µM (inactive) in [3]; 16 µM (inactive) in test [4]; 15.6 µM (inactive) in [5]; 14.5 µM (inactive) in test [6]. Also, the GI50 was 15.9 µM (inactive) in test [7]; 20.9 µM (inactive) in test [8]; 11.9 µM (inactive) in test [9]; 14.7 µM (inactive) in [10]; 15.9 µM (inactive) in test [11]; 16.6 µM (inactive) in test [12]. Further, the GI50 in test [13] is 20.4 µM (inactive); in test [14], 10.3 µM (inactive); in test [16] it was 19.1 µM (inactive).

The record behind these values is ChEMBL document CHEMBL1201862, “PubChem BioAssay data set” (2004).
